Reference: US20240043427A1 (Gilead Sciences, Inc., priority 2020, published 2024)

Tests used:
CD73 [1] = biological target: T1, CD73 (Homo sapiens (Human), UniProt P21589); assay type: biochemical; conditions: 1 mM NaH2PO4 in enzyme buffer, CD73 0.3 nM, AMP 15 uM
CD73 [2] = biological target: T1, CD73; test: MDA-MB-231 Cell Based CD73 Activity Assay (DMEM); conditions: MDA-MB-231-GFP cells, DMEM medium with 10% human plasma, 200 uM AMP

T1 sequence (P21589 27-574): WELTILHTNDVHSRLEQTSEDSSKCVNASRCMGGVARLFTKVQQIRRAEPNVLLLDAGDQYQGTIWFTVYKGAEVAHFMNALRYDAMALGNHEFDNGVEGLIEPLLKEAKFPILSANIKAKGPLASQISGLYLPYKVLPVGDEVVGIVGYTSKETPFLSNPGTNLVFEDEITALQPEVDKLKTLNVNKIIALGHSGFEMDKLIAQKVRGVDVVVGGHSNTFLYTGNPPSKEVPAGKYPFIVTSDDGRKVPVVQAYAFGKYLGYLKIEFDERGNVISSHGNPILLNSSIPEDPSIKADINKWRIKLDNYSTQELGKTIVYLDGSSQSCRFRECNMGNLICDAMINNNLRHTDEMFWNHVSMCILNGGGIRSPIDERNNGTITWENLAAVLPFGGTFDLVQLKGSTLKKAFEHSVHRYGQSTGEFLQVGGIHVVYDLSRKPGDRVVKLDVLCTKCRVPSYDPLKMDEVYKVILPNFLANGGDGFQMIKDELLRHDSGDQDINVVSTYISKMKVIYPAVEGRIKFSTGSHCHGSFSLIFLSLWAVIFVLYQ

IC50 (CD73 [1]) [nM]	EC50 (CD73 [2]) [nM]	Compound
34.9	> 250	O=c1[nH]cc(-c2cc(N3C[C@@H](Oc4ccc(OC(F)(F)C(F)(F)F)cn4)C(F)(F)C3)c3nccn3n2)c(=O)[nH]1 [Example 336, (R)-5-(8-(3,3-difluoro-4-((5-(perfluoroethoxy)pyridin-2-yl)oxy)pyrrolidin-1-yl)imidazo[1,2-b]pyridazin-6-yl)pyrimidine-2,4(1H,3H)-dione]
3.29	15.9	O=c1[nH]cc(-c2cc(N3C[C@H](Oc4ccc(OC(F)(F)C(F)(F)F)cn4)C(F)(F)C3)c3nccn3n2)c(=O)[nH]1 [Example 337, (S)-5-(8-(3,3-difluoro-4-((5-(perfluoroethoxy)pyridin-2-yl)oxy)pyrrolidin-1-yl)imidazo[1,2-b]pyridazin-6-yl)pyrimidine-2,4(1H,3H)-dione]
10.9	72.8	N#Cc1ccc(O[C@@H]2CN(c3cc(-c4c[nH]c(=O)[nH]c4=O)nn4ccnc34)CC2(F)F)nc1 [Example 338, (R)-6-((1-(6-(2,4-dioxo-1,2,3,4-tetrahydropyrimidin-5-yl)imidazo[1,2-b]pyridazin-8-yl)-4,4-difluoropyrrolidin-3-yl)oxy)nicotinonitrile]
0.91	2.6	N#Cc1ccc(O[C@H]2CN(c3cc(-c4c[nH]c(=O)[nH]c4=O)nn4ccnc34)CC2(F)F)nc1 [Example 339, (S)-6-((1-(6-(2,4-dioxo-1,2,3,4-tetrahydropyrimidin-5-yl)imidazo[1,2-b]pyridazin-8-yl)-4,4-difluoropyrrolidin-3-yl)oxy)nicotinonitrile]
1.48	19	O=c1[nH]cc(-c2cc(N3CC(Oc4cnc(C(F)(F)F)cn4)C(F)(F)C3)c3nccn3n2)c(=O)[nH]1 (centres unmarked) [Example 340, 5-(8-(3,3-difluoro-4-((5-(trifluoromethyl)pyrazin-2-yl)oxy)pyrrolidin-1-yl)imidazo[1,2-b]pyridazin-6-yl)pyrimidine-2,4(1H,3H)-dione]
0.43	0.53	O=c1[nH]cc(-c2cc(N3C[C@H](Oc4cc(C(F)F)ccn4)C(F)(F)C3)c3nccn3n2)c(=O)[nH]1 [Example 341, (S)-5-(8-(4-((4-(difluoromethyl)pyridin-2-yl)oxy)-3,3-difluoropyrrolidin-1-yl)imidazo[1,2-b]pyridazin-6-yl)pyrimidine-2,4(1H,3H)-dione]
1.4	3.82	N#Cc1ccnc(O[C@H]2CN(c3cc(-c4c[nH]c(=O)[nH]c4=O)nn4ccnc34)CC2(F)F)c1 [Example 342, 2-[(3S)-1-[6-(2,4-dioxo-1H-pyrimidin-5-yl)imidazo[1,2-b]pyridazin-8-yl]-4,4-difluoro-pyrrolidin-3-yl]oxypyridine-4-carbonitrile]
48.2	129	O=c1[nH]cc(-c2cc(N3CC(OC(F)F)C4(CC4)C3)c3nccn3n2)c(=O)[nH]1 (centres unmarked) [Example 343, 5-[8-[7-(difluoromethoxy)-5-azaspiro[2.4]heptan-5-yl]imidazo[1,2-b]pyridazin-6-yl]-1H-pyrimidine-2,4-dione]
38.4	97	O=c1[nH]cc(-c2cc(N3CC(O)C4(CC4)C3)c3nccn3n2)c(=O)[nH]1 (centres unmarked) [Example 344, 5-[8-(7-hydroxy-5-azaspiro[2.4]heptan-5-yl)imidazo[1,2-b]pyridazin-6-yl]-1H-pyrimidine-2,4-dione]
10.2	98	O=c1[nH]cc(-c2cc(N3CC(Oc4ccc(C(F)(F)F)cn4)C4(CC4)C3)c3nccn3n2)c(=O)[nH]1 (centres unmarked) [Example 345, 5-[8-[7-[[5-(trifluoromethyl)-2-pyridyl]oxy]-5-azaspiro[2.4]heptan-5-yl]imidazo[1,2-b]pyridazin-6-yl]-1H-pyrimidine-2,4-dione]
6.08	24.4	O=c1[nH]cc(-c2cc(N3CC(c4ccccc4)C(F)(F)C3)c3nccn3n2)c(=O)[nH]1 (centres unmarked) [Example 346, 5-(8-(3,3-difluoro-4-phenylpyrrolidin-1-yl)imidazo[1,2-b]pyridazin-6-yl)pyrimidine-2,4(1H,3H)-dione]
4.39	11.9	O=c1[nH]cc(-c2cc(N3CC[C@@H](OC(F)F)C3)c3nccn3n2)c(=O)[nH]1 [Example 347, (R)-5-(8-(3-(difluoromethoxy)pyrrolidin-1-yl)imidazo[1,2-b]pyridazin-6-yl)pyrimidine-2,4(1H,3H)-dione]
54	121	O=c1[nH]cc(-c2cc(N3CC[C@H](OC(F)F)C3)c3nccn3n2)c(=O)[nH]1 [Example 348, (S)-5-(8-(3-(difluoromethoxy)pyrrolidin-1-yl)imidazo[1,2-b]pyridazin-6-yl)pyrimidine-2,4(1H,3H)-dione]
148	124	COC1CN(c2cc(-c3c[nH]c(=O)[nH]c3=O)nn3ccnc23)CC12CC2 (centres unmarked) [Example 349, 5-(8-(7-methoxy-5-azaspiro[2.4]heptan-5-yl)imidazo[1,2-b]pyridazin-6-yl)pyrimidine-2,4(1H,3H)-dione]
12	99.3	O=c1[nH]cc(-c2cc(N3CC(F)(F)C4(CC4)C3)n3nccc3n2)c(=O)[nH]1 [Example 350, 5-(7-(7,7-difluoro-5-azaspiro[2.4]heptan-5-yl)pyrazolo[1,5-a]pyrimidin-5-yl)pyrimidine-2,4(1H,3H)-dione]
10.6	56.4	O=c1[nH]cc(-c2cc(N3CC(F)(F)C(F)(F)C3)c3ncc(F)n3n2)c(=O)[nH]1 [Example 351, 5-(3-fluoro-8-(3,3,4,4-tetrafluoropyrrolidin-1-yl)imidazo[1,2-b]pyridazin-6-yl)pyrimidine-2,4(1H,3H)-dione]
> 250	1000	O=c1[nH]cc(-c2cc(N3C[C@@H]4[C@H](C3)[C@H]4C(F)(F)F)c3nccn3n2)c(=O)[nH]1 [Example 352, 5-(8-((1R,5S,6r)-6-(trifluoromethyl)-3-azabicyclo[3.1.0]hexan-3-yl)imidazo[1,2-b]pyridazin-6-yl)pyrimidine-2,4(1H,3H)-dione]
69.6	109	O=c1[nH]cc(-c2cc(N3CCC(C(F)(F)F)(C(F)(F)F)C3)c3nccn3n2)c(=O)[nH]1 [Example 353, 5-(8-(3,3-bis(trifluoromethyl)pyrrolidin-1-yl)imidazo[1,2-b]pyridazin-6-yl)pyrimidine-2,4(1H,3H)-dione]
90.8	401	N#CC12CC1CN(c1cc(-c3c[nH]c(=O)[nH]c3=O)nn3ccnc13)C2 (centres unmarked) [Example 354, 3-(6-(2,4-dioxo-1,2,3,4-tetrahydropyrimidin-5-yl)imidazo[1,2-b]pyridazin-8-yl)-3-azabicyclo[3.1.0]hexane-1-carbonitrile]
7.56	14.5	O=c1[nH]cc(-c2cc(N3CC4CC4(F)C3)c3nccn3n2)c(=O)[nH]1 (centres unmarked) [Example 355, 5-(8-(1-fluoro-3-azabicyclo[3.1.0]hexan-3-yl)imidazo[1,2-b]pyridazin-6-yl)pyrimidine-2,4(1H,3H)-dione]
> 250	916	O=c1[nH]cc(-c2cc(N3CC(F)(F)C(F)(F)C3)n3ncnc3n2)c(=O)[nH]1 [Example 356, 5-(7-(3,3,4,4-tetrafluoropyrrolidin-1-yl)-[1,2,4]triazolo[1,5-a]pyrimidin-5-yl)pyrimidine-2,4(1H,3H)-dione]
> 250	402	O=c1[nH]cc(-c2cc(N3CC(F)(F)C4(CC4)C3)n3ncnc3n2)c(=O)[nH]1 [Example 357, 5-(7-(7,7-difluoro-5-azaspiro[2.4]heptan-5-yl)-[1,2,4]triazolo[1,5-a]pyrimidin-5-yl)pyrimidine-2,4(1H,3H)-dione]
27.8	82.2	O=c1[nH]cc(-c2cc(N3CC(F)(F)C(F)(F)C3)n3nccc3n2)c(=O)[nH]1 [Example 358, 5-(7-(3,3,4,4-tetrafluoropyrrolidin-1-yl)pyrazolo[1,5-a]pyrimidin-5-yl)pyrimidine-2,4(1H,3H)-dione]
3.43	14.3	O=c1[nH]cc(-c2cc([C@H]3C[C@@H]3c3ncc(Br)cn3)c3nccn3n2)c(=O)[nH]1 [Example 380, 5-(8-((1S,2S)-2-(5-bromopyrimidin-2-yl)cyclopropyl)imidazo[1,2-b]pyridazin-6-yl)pyrimidine-2,4(1H,3H)-dione]
0.69	0.16	O=C1N(CC(F)(F)F)c2cc([C@H]3C[C@@H]3c3cc(-c4c[nH]c(=O)[nH]c4=O)nn4c(F)cnc34)ccc2C12CC2 [Example 381, 5-(3-fluoro-8-((1S,2S)-2-(2′-oxo-1′-(2,2,2-trifluoroethyl)spiro[cyclopropane-1,3′-indolin]-6′-yl)cyclopropyl)imidazo[1,2-b]pyridazin-6-yl)pyrimidine-2,4(1H,3H)-dione]
1.27	0.24	O=C1N(CC(F)(F)F)c2cc([C@H]3C[C@@H]3c3cc(-c4c[nH]c(=O)[nH]c4=O)nn4ccnc34)ccc2C12CCC2 [Example 384, 5-(8-((1S,2S)-2-(2′-oxo-1′-(2,2,2-trifluoroethyl)spiro[cyclobutane-1,3′-indolin]-6′-yl)cyclopropyl)imidazo[1,2-b]pyridazin-6-yl)pyrimidine-2,4(1H,3H)-dione]
0.68	0.25	O=C1N(CC(F)(F)F)c2cc([C@H]3C[C@@H]3c3cc(-c4c[nH]c(=O)[nH]c4=O)nn4c(F)cnc34)ccc2C12CCCC2 [Example 385, 5-(3-fluoro-8-((1S,2S)-2-(2′-oxo-1′-(2,2,2-trifluoroethyl)spiro[cyclopentane-1,3′-indolin]-6′-yl)cyclopropyl)imidazo[1,2-b]pyridazin-6-yl)pyrimidine-2,4(1H,3H)-dione]
0.92	0.28	O=C1N(CC(F)(F)F)c2cc([C@H]3C[C@@H]3c3cc(-c4c[nH]c(=O)[nH]c4=O)nn4c(F)cnc34)ccc2C12CCC2 [Example 386, 5-(3-fluoro-8-((1S,2S)-2-(2′-oxo-1′-(2,2,2-trifluoroethyl)spiro[cyclobutane-1,3′-indolin]-6′-yl)cyclopropyl)imidazo[1,2-b]pyridazin-6-yl)pyrimidine-2,4(1H,3H)-dione]
